Results: ChEMBL document CHEMBL4732083, “Synthesis and anti-inflammatory activity of saponin derivatives of δ-oleanolic acid” (Eur J Med Chem, 2021)
Active and inactive are the calls of the source. No cut-off for these calls is given here.

What was measured:
[1] = target: AMP-activated protein kinase, AMPK (Homo sapiens) (UniProt P54646+O43741+P54619+Q9UGJ0+Q9Y478+Q13131+Q9UGI9); assay: Activation of AMPK in human Huh-7 cells assessed as increase in AMPK phosphorylation at Thr172 residue at 10 uM measured after 12 hrs by Western blot analysis; format: cell-based; details: filed as activator
[2] = Metabolic stability in human liver microsomes assessed as half life in presence of NADPH by LC-MS analysis; format: ADME, Microsome
[3] = Metabolic stability in mouse liver microsomes assessed as half life in presence of NADPH by LC-MS analysis; format: ADME, Microsome
[4] = Metabolic stability in human liver microsomes assessed as intrinsic clearance in presence of NADPH by LC-MS analysis; format: ADME, Microsome; details: read-out: CLH
[5] = Metabolic stability in mouse liver microsomes assessed as intrinsic clearance in presence of NADPH by LC-MS analysis; format: ADME, Microsome; details: read-out: CLH

SMILES | Activity [1] | also measured
C[C@@H]1CC[C@]2(C(=O)O[C@@H]3O[C@H](CO)[C@@H](O)[C@H](O)[C@H]3O)CC[C@]3(C)C(=CC[C@@H]4[C@@]5(C)CC[C@H](O[C@@H]6OC[C@H](O)[C@H](O)[C@H]6O)C(C)(C)[C@@H]5CC[C@]43C)[C@@H]2[C@]1(C)O | Active | –
CC1(C)CC[C@]2(C(=O)O)CC[C@]3(C)C(=CC[C@@H]4[C@@]5(C)CC[C@H](O)C(C)(C)[C@@H]5CC[C@]43C)[C@@H]2C1 | Active | –
CC1(C)CC[C@]2(C(=O)O)CC[C@]3(C)C(=CC[C@@H]4[C@@]5(C)C[C@@H](O)[C@H](O)C(C)(C)[C@@H]5CC[C@]43C)[C@@H]2C1 | Active | –
CC1(C)CC[C@]2(C(=O)O)CC[C@]3(C)C(=CC[C@@H]4[C@@]5(C)CC[C@H](O[C@@H]6O[C@H](C(=O)O)[C@@H](O)[C@H](O)[C@H]6O)C(C)(C)[C@@H]5CC[C@]43C)[C@@H]2C1 | Active | –
C[C@@H]1O[C@@H](O[C@H]2[C@H](O[C@H]3CC[C@@]4(C)[C@@H](CC[C@]5(C)[C@@H]4CC=C4[C@@H]6CC(C)(C)CC[C@]6(C(=O)O[C@@H]6O[C@H](CO[C@@H]7O[C@H](CO)[C@@H](O[C@@H]8O[C@@H](C)[C@H](O)[C@@H](O)[C@H]8O)[C@H](O)[C@H]7O)[C@@H](O)[C@H](O)[C@H]6O)CC[C@]45C)[C@]3(C)CO)OC[C@H](O)[C@@H]2O)[C@H](O)[C@H](O)[C@H]1O | Active | –
C[C@H]1[C@H](C)CC[C@]2(C(=O)O[C@@H]3O[C@H](CO[C@@H]4O[C@H](CO)[C@@H](O[C@@H]5O[C@@H](C)[C@H](O)[C@@H](O)[C@H]5O)[C@H](O)[C@H]4O)[C@@H](O)[C@H](O)[C@H]3O)CC[C@]3(C)C(=CC[C@@H]4[C@@]5(C)C[C@@H](O)[C@H](O)[C@@](C)(CO)[C@@H]5[C@H](O)C[C@]43C)[C@H]12 | Active | –
C[C@@H]1CC[C@]2(C(=O)O)CC[C@]3(C)C(=CC[C@@H]4[C@@]5(C)CC[C@H](O[C@@H]6OC[C@H](O)[C@H](O)[C@H]6O)C(C)(C)[C@@H]5CC[C@]43C)[C@@H]2[C@]1(C)O | Active | –
CC1(C)CC[C@]2(C(=O)O[C@@H]3O[C@H](CO)[C@@H](O)[C@H](O)[C@H]3O)CC[C@]3(C)C(=CC[C@@H]4[C@@]5(C)CC[C@H](O[C@@H]6O[C@H](C(=O)O)[C@@H](O)[C@H](O)[C@H]6O[C@@H]6O[C@H](CO)[C@@H](O)[C@H](O)[C@H]6O)C(C)(C)[C@@H]5CC[C@]43C)[C@@H]2C1 | Active | –
C[C@H]1[C@H](C)CC[C@]2(C(=O)O[C@@H]3O[C@H](CO[C@@H]4O[C@H](CO)[C@@H](O[C@@H]5O[C@@H](C)[C@H](O)[C@@H](O)[C@H]5O)[C@H](O)[C@H]4O)[C@@H](O)[C@H](O)[C@H]3O)CC[C@]3(C)C(=CC[C@@H]4[C@@]5(C)C[C@@H](O)[C@H](O)[C@@](C)(CO)[C@@H]5CC[C@]43C)[C@H]12 | Active | –
CC1(C)CC[C@]2(C(=O)O[C@@H]3O[C@H](CO[C@@H]4O[C@H](CO)[C@@H](O)[C@H](O)[C@H]4O)[C@@H](O)[C@H](O)[C@H]3O)CC[C@]3(C)C(=CC[C@@H]4[C@@]5(C)CC[C@H](O[C@@H]6OC[C@H](O)[C@H](O)[C@H]6O)[C@@](C)(CO)[C@@H]5CC[C@]43C)[C@@H]2C1 | Active | –
O=C(c1ccc(F)cc1)C1CCN(CCn2c(=O)[nH]c3ccccc3c2=O)CC1 [KETANSERIN] | – | half-life [2]: 42.4 min; half-life [3]: 19.3 min; CLint scaled [4]: 41 mL/min/kg; CLint scaled [5]: 283 mL/min/kg
C=C(C)[C@@H]1CC[C@]2(C(=O)O)CC[C@]3(C)[C@H](CC[C@@H]4[C@@]5(C)CC[C@H](O)C(C)(C)[C@@H]5CC[C@]43C)[C@@H]12 | Active | –
